In general, melting point refers to the temperature of the solid-liquid transition.

`CC(O)c1ccc(C(C)Oc2cncc(C(=O)Nc3ccc(C#N)cc3)c2)cc1` (configuration not stated) gave a melting point of 179 to 181 °C. Next, `CCCC(=O)Nc1n[nH]c2cc(-c3ccc(C(C)(C)C)cc3)ccc12`: 246 °C; `CN(CC1CC(c2ccc(F)cc2)=NO1)C1CCC(c2ccc3[nH]c(=O)oc3c2)CC1` (configuration not stated): 109 to 114 °C. Next, `CCCCc1ncc(CO)n1Cc1ccccc1Cl`: 86 to 88 °C; `COC1(c2cccc(OCc3ccc(-n4ccnc4C)cc3)c2)CCOCC1`: 136 to 137 °C; `CC(C)Oc1cc(CCCOc2ncccc2CC(=O)O)n(Cc2ccc(F)cc2Cl)n1`: 90 to 91 °C. With `C=CCOC(=O)c1c(C)c(OC)cc(O[Si](C)(C)C(C)(C)C(C)C)c1C=O` the figure was 81 to 82 °C. Consider `CC(C)(C(N)=O)c1ccc(Br)cc1`, for which the melting point lay in the range of 139 to 141 °C. With `Cc1cc2c(cc1N1CC(C)C(C)C1)OC(=O)C2C` (configuration not stated) the figure was 104 to 105 °C; with `Oc1ccc2c(c1)COc1c-2cc2ccc(O)cc2c1-c1ccoc1`, 216 to 218 °C. With `O=C(Nc1ccc(-n2nc(C(F)(F)F)cc2C(F)(F)F)cc1)c1cccc(C(F)(F)F)c1` the figure was 143 to 145 °C; with `O=CC1C(c2ccc(F)cc2)CCC12C=Cc1ccccc12` (configuration not stated), 115 to 118 °C. Next, `Cc1[nH]c(C(=O)Nc2ccc3[nH]ccc3c2)c(C)c1-c1nc2ccc(C(=O)c3ccccc3)cc2[nH]1`: 167 to 169 °C; `COc1nc(C)nc(NC(=O)NS(=O)(=O)c2cc(Br)cc3c2OS(=O)(=O)C(C)=C3)n1`: 196 to 198 °C. Consider `COc1cc(O)c2c(c1)OC(C(C)(C)C=C1N=C(c3ccccc3)OC1=O)CC2=O` (configuration not stated), for which the melting point lay within 147 to 149 °C. On to `NS(=O)(=O)Oc1ccc(I)cc1`, for which the melting point is 146 to 147 °C. Consider `COc1ccc(N2CCN(c3c(C)c(C)c4c(c3C)C(OCc3ccc(C(=O)O)cc3)C(C)(C)O4)CC2)cc1` (configuration not stated), for which the melting point lay in the range of 162 to 163 °C. `NC(=O)Cc1ccc(CCCOCCCCCCNCC(O)c2cc(Cl)c(N)c(Cl)c2)cc1` (configuration not stated) registered a melting point of 104 to 106 °C. Next, `C=C(C)C(=O)Oc1ccc(S(=O)(=O)NC)cc1`: 106 to 107 °C; `COC1(c2cc(F)cc(Sc3cnc4c(c3)OCC(=O)N4C)c2)CCOCC1`: 127 to 128 °C; `Cc1cn(-c2ccc(NC(=O)c3ccc(C)c(Nc4nccc(-c5cccnc5)n4)c3)cc2C(F)(F)F)cn1`: 154 to 163 °C.

`CCC(=O)CN1C(=O)C(NC(=O)Nc2cccc(C)c2)N=C(C)c2cccc(C)c21` (configuration not stated) had a melting point of 125 to 128 °C. With `CN1C(=O)COc2cc(S(=O)Cc3ccccc3)ccc21` (configuration not stated) the figure was 133 to 135 °C; with `Cn1cc(-c2ccc(C(=O)O)cc2)cn1`, 274 to 275 °C. Consider `CCCc1c2nc(C(=O)OCC)cc(C)c2cc2c(=O)cc(C(=O)OCC)oc12`, for which the melting point is 165 to 168 °C. In turn, `COc1ccc(CNC(=O)c2cc3c(=O)n(C[C@H]4CC[C@H](C(=O)O)CC4)cnc3cn2)cc1` had a melting point of 232 to 233 °C.

In turn, `Cc1ccnc(NC(=O)c2ccn3c2CSC3c2cccnc2)c1` (configuration not stated) gave a melting point of 163 °C. `Sc1nncn1C1CCCCC1` gave a melting point of 162 to 165 °C. `Cc1cc(-c2ccc(Cl)cc2)nc2c(-c3nc(-c4cccc(S(N)(=O)=O)c4)no3)cnn12` yielded a melting point of 275 °C.

`Cc1ccc(-c2nc3ccccc3s2)cc1` registered a melting point of 84 to 85 °C. With `Cc1c(NC(=O)c2ccc(OCc3ccccc3F)cc2)ccc2cc(CN3CCCC3)cnc12` the figure was 104 to 105 °C.

Turning to `COc1ccc(C2(C#Cc3ccccc3)CCC(=O)CC2)cc1OC1CCCC1`, the melting point fell in the range of 99 to 100 °C. With `CN1CC(=O)N(c2ccc3c(c2)CCC3)C1=S` the figure was 158 to 160 °C; with `O=C(Nc1cccc2c(=O)cc[nH]c12)c1c(Cl)cccc1Cl`, 342 °C; with `CCOC(=O)Cc1ccc(-c2nc(CCl)c(C)o2)cc1`, 87 to 88 °C. For `Brc1ccc2c(c1)Cc1cc(I)ccc1-2`, the melting point was 179 to 185 °C. With `CS(=O)(=O)Nc1c(C(=O)c2ccccc2)[nH]c2cc(F)ccc12` the figure was 166 to 168 °C; with `COc1cc(N2CCC(N3CCN(C)CC3)CC2)ccc1-c1nc2c(N[C@H]3[C@@H](C(N)=O)[C@@H]4C=C[C@H]3C4)ccnc2[nH]1`, 185 to 195 °C. Next, `CCOC(=O)c1cn(C)c2cnc3c(F)c(F)ccc3c2c1=O`: 320 °C. As to `CCCCCCCCC(=O)Nc1cc(C)c(O)c(C)c1`, the melting point was 100 to 101 °C. Next, `CSCCn1nc(-c2ccc(OCCCC(F)(F)F)cc2)oc1=O`: 105 °C; `COCCOc1ccc(CCCO)c(Oc2ncc(Cl)cc2Cl)c1`: 83.9 to 84.5 °C. Next, `COc1cc2c(cc1OC)/C(=C/c1cc(OC)c(OC)c(OC)c1)N(C(=O)Cc1cc(OC)c(OC)c(OC)c1)CC2`: 148 to 150 °C.

`O=C(Nc1ccc(Oc2ccc(C(F)(F)F)cc2)cc1)Nc1nonc1-c1ccc(Cl)cc1` came in with a melting point of 208 °C.

Take `COc1ccc(N)c(S)c1`: the melting point is 104 °C. Next, `COc1ccc(C(=O)CC(=O)c2snc(Cl)c2Cl)cc1`: 138 to 139 °C; `Cc1ccc(C(=O)O)c(Nc2cc(C)nn2C)c1`: 188 to 192 °C; `CS(=O)(=O)c1ccc(S(=O)(=O)N2CCCC(c3ccc(Cl)c(Cl)c3)=N2)cc1`: 181 to 183 °C. On to `COC(=O)[C@H]1Cc2c([nH]c3ccccc23)[C@@H](c2ccc3c(c2)OCO3)N1C(=O)C(C)Cl` (some centres not stated), for which the melting point was 125 to 127 °C. In turn, `CC(C)CCCC(C)C1CCC2C3CC=C4CC(I)CCC4(C)C3CCC12C` (configuration not stated) came in with a melting point of 106 °C. With `Cc1c(Cl)c(Cl)c(Cl)c(Cl)c1C=O` the figure was 187 to 194 °C; with `Nc1ncnc2c1c(-c1ccccc1)cn2-c1cccc(C(=O)NCCO)c1`, 194 to 198 °C. Compound `Cc1ccc(C(=O)Nc2nc(C(Cl)(Cl)Cl)ns2)cc1` had a melting point of 127 °C. With `O=C1CCC(N2Cc3c(CNC(=S)NC4CCCCC4)cccc3C2=O)C(=O)N1` (configuration not stated) the figure was above 260 °C. `COC(=O)c1c(C)nn2c(-c3cccc(C(F)(F)F)c3)ccnc12` returned a melting point of 177 to 179 °C.

For the compound `N#Cc1cscc1Nc1ccc(Cl)cc1[N+](=O)[O-]`, the melting point was 214 °C. `Nc1cccc(-c2ccc(CCN3CCN(C4CCc5ccccc5C4)CC3)cc2)n1` (configuration not stated) registered a melting point above 220 °C. Next, `O=C(Oc1ccc(Oc2ccccc2)cc1)Oc1ccc([N+](=O)[O-])cc1`: 113 to 115 °C; `Cc1nc(NC(=O)OCc2ccccc2)c2n1-c1ccc(Cl)cc1C(c1ccccc1F)=NC2`: 250 to 253 °C; `COc1cc(C(N)=S)c2c(c1OC)C(=O)CC2`: 196 to 199 °C. `CNC(=S)C1(c2cnc3ccccc3c2)CCCCC1=O` (configuration not stated) gave a melting point of 235 to 236 °C. With `CCOC(N)=C(C#N)C(N)=S` the figure was 170 to 171 °C; with `CC1CCCN1C1CCN(c2ccc(CC(=O)NC3CCOCC3)cc2)C1` (configuration not stated), 155 to 157 °C.

In turn, `O=C1NC[C@@H](C(=O)NCCO[N+](=O)[O-])O1` gave a melting point of 101 to 103 °C. Consider `CCC(C)(c1ccc(O)c(C)c1)c1ccc(O)c(C)c1`, for which the melting point is 144 to 146 °C. `O=C(O)C1=Cc2cccc(Cl)c2OC1C(F)(F)F` (configuration not stated) yielded a melting point of 224 to 226 °C. With `Cc1cc(C)c2nc(-c3cnc(NCCCC4CCN(C)CC4)nc3C)[nH]c2c1` the figure was 179 °C; with `NC(=O)c1cc(NCc2cccc(F)c2)c([N+](=O)[O-])cc1[N+](=O)[O-]`, 175 to 177 °C; with `CCOC(=O)C1Cc2sc(N)c(C(=O)c3ccccc3Cl)c2C1` (configuration not stated), 121 to 122 °C. `COc1ccc(CN(C)CCCOc2ccc(NC(=O)c3cccc4c(=O)c5ccccc5[nH]c34)c(C)c2)cc1OC` displayed a melting point of 145 to 150 °C. Next, `CC1(C)NC2(CCCCC2)NC1(C)C`: 31 to 32 °C; `CC(C)c1cccc(C(C)C)c1NC(=O)NC1CCCCC1c1ccccc1` (configuration not stated): 225 to 226 °C; `COC(=O)c1nc(N=C=S)ccc1Oc1nc(OC)cc(OC)n1`: 116 to 117 °C.

For `CCc1ccc2oc(C(=O)Nc3ccc(-c4ccc(S(=O)(=O)NC(C(=O)OC)C(C)C)cc4)cc3)c(C)c2c1OCc1ccccc1` (configuration not stated), the melting point was in the range of 191 to 193 °C. The compound `COC(=O)c1cc(C(=O)NCCCO)c2cc(Cc3ccc(F)cc3)cnc2c1O` displayed a melting point of 167 to 168 °C. For the compound `O=C(Nc1ccc(OCCN2CCOCC2)c2ccccc12)c1cccc(-c2cccnc2)c1`, the melting point was 77 to 78 °C. With `N#CCOc1ccc(-c2ccc(=O)n(Cc3ccc(Cl)cc3F)c2)cc1` the figure was 160 °C; with `Nc1ccc(Cc2ccccc2)cc1[N+](=O)[O-]`, 80 to 83 °C. With `CCCCCCCc1ccccc1C=CC(=O)c1ccc(OCC=C(C)C)cc1OCC(=O)O` the figure was 118 to 121 °C. With `O=C(c1cc(N2CCC(N3CCCC3)CC2)ccn1)N(O)Cc1ccccc1` the figure was 135 to 140 °C; with `O=c1cc(-c2ccc(OCc3ccccc3)c(OCc3ccccc3)c2)oc2cc(OCCBr)ccc12`, 167 to 168 °C; with `Cc1c(C(=O)N(C)N2CC=CCC2)nn(-c2ccc(Cl)cc2Cl)c1-c1ccc(Cl)cc1`, 138 °C. Take `Cc1c2c3c(nc(N)c2nn1C)CCCC3`: the melting point was 258 to 259 °C. With `CCCSC(C)(C(=O)O)c1ccc2oc(Cc3nc(-c4ccccc4)oc3C)cc2c1` (configuration not stated) the figure was 169 to 170 °C.

`CC(C)C[C@H]1CNC[C@H]1C(=O)O` (relative stereo) returned a melting point of 260 to 262 °C.

With `CC(C)NCC(O)COc1ccc(CCOCC2CCC2)cc1` (configuration not stated), the melting point lay within 62 to 63 °C. In turn, `Cc1ccc(-n2nc(C#N)cc2-c2ccc(S(C)(=O)=O)cc2)cc1F` gave a melting point of 167 to 168 °C.

The values are drawn from a melting point compilation (Tetko et al.; mined from patent text by program, amines drawn as free bases though some values may be those of a salt).
